Patent US12162894B2, “Structural analog of Cyclotheonellazole A, and synthetic method therefor and application method thereof” (The Second People's Hospital of Shenzhen (Shenzhen …, priority 2022, dated 2024)

Target: T1, Neutrophil Elastase (NE) (Homo sapiens, UniProt P08246)
T1 construct: purchased Abcam ab118971
T1 sequence (P08246 30-267): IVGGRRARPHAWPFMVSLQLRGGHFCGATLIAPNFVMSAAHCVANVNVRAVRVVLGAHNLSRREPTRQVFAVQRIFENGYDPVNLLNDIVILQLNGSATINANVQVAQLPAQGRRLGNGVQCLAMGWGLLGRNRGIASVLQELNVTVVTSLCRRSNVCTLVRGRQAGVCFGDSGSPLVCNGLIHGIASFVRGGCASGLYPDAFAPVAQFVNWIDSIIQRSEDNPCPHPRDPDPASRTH
Experiment: Inhibition of neutrophil elastase (NE), fluorescence kit (Abcam ab118971)
Format: biochemical
Settings: 5 min pre-incubation at 37° C.; Ex/Em=400/505 nm; slope of fluorescence; read-out: IC50, enzyme activity of the NE
Method: An Inhabitation Effect of the TM to Neutrophil Elastase (NE)
• 1. Experimental materials include a NE protease detection kit (ab118971) of an Abcam company and TM. • 2. Experimental methods are as follows. In a black 96-well plate, a blank well group, a negative control well group and a sample well group are set, and a reaction system is 100 μL. The blank well group is added with 75 μL of buffer, the negative control well group is added with 50 μL of NE protease and 25 μL of buffer, the sample well group is added with 50 μL of NE protease and 25 μL of TM solution (respectively with concentrations of 0.00001 μM, 0.0001 μM, 0.001 μM, 0.003 μM, 0.01 μM 0.1 μM, 1 μM, and 10 μM), and the three groups are incubated at a temperature of 37° C. for 5 min. Each well is added with 25 μL of substrate, after mixing evenly, fluorescence value of each well is immediately detected at Ex/Em=400/505 nm, and is detected every 20 seconds, and a dynamic process within a range of 0-40 min is observed. Two different time points (T1 and T2) are selected within a linear range of the dynamic process to obtain fluorescence values (RFUT1 and RFUT2) corresponding to the time points, a slope of the fluorescence values is calculated, and the slope can be regarded as an enzyme activity of each well. […] A half inhibitory concentration (IC50) is calculated through the Origin 2021 software. • 3.

- IC50: 1.27 nM
SMILES: CCC[C@@H]1NC(=O)[C@@H](NC=O)CNC(=O)[C@H](CS(=O)(=O)O)NC(=O)/C=C/c2csc(n2)[C@H](Cc2ccc(O)cc2)NC(=O)C(=O)[C@H]([C@@H](C)CC)NC1=O [TM]
